# Measurements as given in article PMC11358882, “Neuroprotective Effects of Phenolic Constituents from Drynariae Rhizoma” (Pharmaceuticals, 2024).
# Columns and labels:
# BACE1 = molecular target: T1, BACE1 (Homo sapiens, UniProt P56817); test: BACE1 (β-secretase) FRET inhibitory assay; type: biochemical; details: isolated compounds; mean ± SD, n = 3; read-out: IC50 BACE1
# T1 construct: purchased PanVera Corporation, Madison, WI, USA P2985
# Method: The BACE1 inhibition assay was conducted using the BACE1 (β-secretase) FRET Assay Kit, Red Protocol, part number P2985 (PanVera® Corporation, Madison, WI, USA), following the manufacturer’s recommended protocol with minor modifications. The assay mixture consisted of 10 μL of BACE1 (1.0 U/mL), 10 μL of substrate (750 nM Rh-[…]-Quencher in 50 mM ammonium bicarbonate), the assay buffer (50 mM sodium acetate, pH 4.5), and 10 μL of the test samples. […] The reaction mixture was incubated for 60 min at room temperature in darkness. Before measurement, a stop solution (2.5 M sodium acetate) was added to halt the reaction. BACE1 enzyme activity was assessed by monitoring the proteolysis of two fluorophores (Rh-[…]-Quencher), forming the fluorescent donor (Rh-EVNL) with increased fluorescence wavelengths at 530–545 nm (excitation) and 570–590 nm (emission), respectively. All reactions were recorded in black 96-well microplates and performed in triplicate. The percentage of inhibition (%) was calculated using the following formula: inhibition (%)=[1−(S60−S0)/(C60−C0)]×100 , where C60 represents the fluorescence of the control after incubation, C0 represents the initial fluorescence of the control, S60 represents the fluorescence of the tested sample after incubation, and S0 represents the initial fluorescence of the tested sample. The BACE1-inhibitory activities of each sample were quantified in terms of IC50, which was determined from the log–dose inhibition curve.
# MAO-B = molecular target: T2, MAO-B (Homo sapiens, UniProt P27338); test: MAO-B inhibitor screening kit (fluorometric) assay; type: biochemical; details: isolated compounds; mean ± SD, n = 3; ND = no detection using test concentration
# T2 construct: purchased Abcam plc, Cambridge, UK ab284511
# T2 sequence (P27338 1-520): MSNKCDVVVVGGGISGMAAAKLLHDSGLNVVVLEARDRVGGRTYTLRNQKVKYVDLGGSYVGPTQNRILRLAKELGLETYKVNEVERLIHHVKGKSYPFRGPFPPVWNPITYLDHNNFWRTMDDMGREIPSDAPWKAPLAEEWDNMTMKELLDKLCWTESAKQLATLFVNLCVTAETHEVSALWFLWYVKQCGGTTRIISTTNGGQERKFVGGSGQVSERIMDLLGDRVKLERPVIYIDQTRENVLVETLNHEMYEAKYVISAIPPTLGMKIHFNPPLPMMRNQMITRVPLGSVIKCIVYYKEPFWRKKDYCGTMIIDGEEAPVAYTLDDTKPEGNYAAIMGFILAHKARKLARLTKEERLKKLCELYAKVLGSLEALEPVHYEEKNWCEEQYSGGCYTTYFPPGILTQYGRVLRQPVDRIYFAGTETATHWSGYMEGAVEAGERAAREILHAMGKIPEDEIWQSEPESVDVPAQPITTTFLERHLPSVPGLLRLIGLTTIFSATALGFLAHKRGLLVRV
# Method: The MAO-B-inhibition assay was conducted using the MAO-B Inhibitor Screening Kit (Fluorometric) ab284511 (Abcam plc, Cambridge, UK), following the manufacturer’s recommended protocol with minor modifications. The enzyme solution (50 µL) and the test sample (10 µL) were adjusted as per the manual instructions. […] After mixing, samples and enzymes were incubated at 25 °C for 10 min. Subsequently, 40 μL of MAO-B substrate (comprising MAO-B assay buffer, MAO substrate, developer, and OxiRed probe) was added, followed by further incubation at 25 °C for 5 min. Fluorescence was measured using enzyme-linked immunosorbent assay within 40 min with dynamic fluorescence (Ex/Em = 535/587 nm). All reactions were recorded in black 96-well microplates and performed in triplicate. The slope for all samples, including the enzyme control (EC), was calculated by dividing the net ΔRFU (RFU2–RFU1) values by the time Δt (T2 − T1). The % relative inhibition was computed as follows: % relative inhibition=(slope of EC−slope of S)/slope of EC×100 . The MAO-B-inhibitory activities of each sample were quantified in terms of IC50, as determined from the log–dose inhibition curve.
# sAPPβ = test: Western blot of sAPPβ levels in APP-CHO cells; type: cell-based, Chinese hamster; details: 1.0 μM, 24 h
# Method: APP-CHO cells were seeded in six-well plates at a density of 6 × 10^5 cells/1000 μL of medium per well and incubated at 37 °C overnight for cell attachment. Then, the medium was replaced with FBS-free RPMI 1640 for 1 h, followed by treatment with test samples at 37 °C. After 24 h, the cells were washed with PBS and lysed in Laemmli sample buffer. The collected cell lysates were boiled at 100 °C for 10 min. For Western blot analysis, 20 μg of proteins were separated by 7.5% SDS-PAGE and transferred to a PVDF membrane using Trans-Blot® Turbo TM (Bio-Rad, Hercules, CA, USA). The membrane was blocked with 5% skim milk in PBS for 1 h and incubated with primary antibodies overnight at 4 °C. The primary antibodies used were sAPPβ antibody, BACE1 antibody, and α-tubulin antibody diluted at 1:1000, 1:1000, and 1:25,000, respectively. After washing with PBS-T (0.1% Tween 20 in PBS) three times for 10 min each, secondary antibodies, diluted to 1:2500, were incubated for 1 h. Protein detection was performed using ECL solution reagent and protein visualization (ChemiDoc^TM XRS+., Bio-Rad, Hercules, CA, USA). The signal intensity of the bands was quantified and normalized to the signal intensity of the α-tubulin band. Results were expressed as a percentage of DMSO-treated control.
# Aβ1-42 = molecular target: T3, Aβ1-42 (Homo sapiens, UniProt P05067); test: Thioflavin T assay, disaggregation of preformed Aβ aggregates; type: biochemical; details: 24 h with Aβ pre-aggregated for 24 h
# T3 construct: Aβ1-42 used for the Th T assay was purchased from GL Biochem, Shanghai, China; purchased GL Biochem, Shanghai, China
# T3 sequence (P05067 672-713 limits assumed): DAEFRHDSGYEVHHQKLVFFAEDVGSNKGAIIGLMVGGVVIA
# Method: The Th T assay was conducted to assess the aggregation of Aβ into oligomers and fibrils. Aβ1-42 was dissolved in DMSO at a concentration of 1 mg/mL, and test samples were also dissolved in DMSO. Aβ1-42 (20 μM) was incubated with various concentrations of test samples at 37 °C for 24 h to evaluate the effects of test samples on Aβ aggregation. Subsequently, 3 μM of Th T was added, and fluorescence was measured after 30 min using an E-max precision microplate reader with excitation at 442 nm and emission at 485 nm (Epoch, BioTek, Winooski, VT, USA). Aβ treated with DMSO only served as a control, and each assay was performed in triplicate. Then, the Th T assay was performed to assess the effects of test samples on the disaggregation of preformed Aβ aggregates. Briefly, 20 μM of Aβ1-42 was incubated at 37 °C for 24 h. Various concentrations of test samples were then added and incubated at 37 °C for an additional 24 h. Subsequently, 3 μM of Th T was added, and fluorescence was measured after 30 min using an E-max precision microplate reader with excitation at 442 nm and emission at 485 nm (Epoch, BioTek, Winooski, VT, USA). Aβ treated with DMSO only served as a control, and each assay was performed in triplicate.
# T1 sequence (P56817 46-501): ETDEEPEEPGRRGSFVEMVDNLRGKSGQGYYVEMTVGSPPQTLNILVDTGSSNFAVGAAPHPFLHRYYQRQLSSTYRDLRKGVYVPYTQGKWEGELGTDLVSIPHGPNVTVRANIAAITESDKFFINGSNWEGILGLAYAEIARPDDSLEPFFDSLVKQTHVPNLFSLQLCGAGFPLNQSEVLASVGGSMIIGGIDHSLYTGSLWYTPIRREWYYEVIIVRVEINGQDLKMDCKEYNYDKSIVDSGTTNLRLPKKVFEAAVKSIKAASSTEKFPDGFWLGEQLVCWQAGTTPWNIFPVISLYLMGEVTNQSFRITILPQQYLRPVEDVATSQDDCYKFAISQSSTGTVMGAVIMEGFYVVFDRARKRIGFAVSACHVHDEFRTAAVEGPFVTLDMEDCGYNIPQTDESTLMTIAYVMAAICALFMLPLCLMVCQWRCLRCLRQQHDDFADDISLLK
Structure (SMILES),IC50 (BACE1) [µM],IC50 (MAO-B) [µM],reduction of sAPPβ levels compared to DMSO-treated controls (sAPPβ) [%],degradation of preformed Aβ aggregates (Aβ1-42; 1.0 μM),degradation of preformed Aβ aggregates (Aβ1-42; 0.5 μM) [%]
"C[C@@H]1O[C@@H](Oc2c(-c3ccc(O)cc3)oc3cc(O[C@@H]4O[C@H](CO)[C@@H](O)[C@H](O)[C@H]4O)cc(O)c3c2=O)[C@H](O)[C@H](O)[C@H]1O [Compound 6, kaempferol 3-O-rhamnoside 7-O-glucoside]",83.27 ± 0.33,109.19 ± 0.08,30,approximately 45%,
"O=c1c(O[C@@H]2O[C@H](CO)[C@@H](O)[C@H](O)[C@H]2O)c(-c2ccc(O)cc2)oc2cc(O[C@@H]3O[C@@H](CO)[C@H](O)[C@H]3O)cc(O)c12 [Compound 7, kaempferol 3-o-b-d-glucopyranoside-7-o-a-L-arabinofuranoside]",39.11 ± 0.17,65.8 ± 3.72,30,,~60
